{"source": "paper PMC8578206", "about": "“Green Leaf Volatile-Burst in Selaginella moellendorffii” (Frontiers in Plant Science, 2021)", "target": "T1, SmHPL1b (Selaginella moellendorffii, UniProt D8RF82)", "T1 construct": "gene CYP74L1; full ORF from genomic DNA in pET100/D-TOPO (tag kept), E. coli BL21 Star (DE3) membrane fraction", "T1 sequence (D8RF82 entry or part of it)": "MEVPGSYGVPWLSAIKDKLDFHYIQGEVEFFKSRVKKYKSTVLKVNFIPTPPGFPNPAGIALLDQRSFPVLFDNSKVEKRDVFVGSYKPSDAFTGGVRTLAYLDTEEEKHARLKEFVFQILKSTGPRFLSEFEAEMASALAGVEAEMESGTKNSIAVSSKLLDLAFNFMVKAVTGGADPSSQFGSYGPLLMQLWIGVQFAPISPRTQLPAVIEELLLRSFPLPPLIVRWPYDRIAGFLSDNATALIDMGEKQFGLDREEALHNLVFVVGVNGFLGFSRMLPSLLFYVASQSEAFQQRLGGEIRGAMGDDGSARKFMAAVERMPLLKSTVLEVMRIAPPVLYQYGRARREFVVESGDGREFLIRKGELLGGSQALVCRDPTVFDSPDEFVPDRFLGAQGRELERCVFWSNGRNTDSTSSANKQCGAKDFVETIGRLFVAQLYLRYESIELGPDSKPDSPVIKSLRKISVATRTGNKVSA", "test": "decrease in absorbance at […] nm", "format": "biochemical", "details": "E. coli membrane fraction, MES-KOH pH 6.0, 25 °C (methods); optimum pH 5.5", "data": [{"smiles": "CC/C=C\\C[C@@H](/C=C/C=C\\CCCCCCCC(=O)O)OO", "note": "[13HPOT, (9Z,11E,15Z)-13-hydroperoxyoctadeca-9,11,15-trienoic acid]", "values": [{"measurement": "Km", "value": 31.4, "unit": "µM"}]}]}
